Experimental data taken from ChEMBL document CHEMBL2311425, “Histone deacetylase (HDAC) inhibitors with a novel connecting unit linker region reveal a selectivity profile for HDAC4 and HDAC5 with improved activity against chemoresistant cancer cells” (J Med Chem, 2013).

What was measured:
[1] = biological target: T1, Protein deacetylase HDAC6 (Homo sapiens, UniProt Q9UBN7); test: Inhibition of human HDAC6 by fluorescence assay
T1 sequence (Q9UBN7 whole entry): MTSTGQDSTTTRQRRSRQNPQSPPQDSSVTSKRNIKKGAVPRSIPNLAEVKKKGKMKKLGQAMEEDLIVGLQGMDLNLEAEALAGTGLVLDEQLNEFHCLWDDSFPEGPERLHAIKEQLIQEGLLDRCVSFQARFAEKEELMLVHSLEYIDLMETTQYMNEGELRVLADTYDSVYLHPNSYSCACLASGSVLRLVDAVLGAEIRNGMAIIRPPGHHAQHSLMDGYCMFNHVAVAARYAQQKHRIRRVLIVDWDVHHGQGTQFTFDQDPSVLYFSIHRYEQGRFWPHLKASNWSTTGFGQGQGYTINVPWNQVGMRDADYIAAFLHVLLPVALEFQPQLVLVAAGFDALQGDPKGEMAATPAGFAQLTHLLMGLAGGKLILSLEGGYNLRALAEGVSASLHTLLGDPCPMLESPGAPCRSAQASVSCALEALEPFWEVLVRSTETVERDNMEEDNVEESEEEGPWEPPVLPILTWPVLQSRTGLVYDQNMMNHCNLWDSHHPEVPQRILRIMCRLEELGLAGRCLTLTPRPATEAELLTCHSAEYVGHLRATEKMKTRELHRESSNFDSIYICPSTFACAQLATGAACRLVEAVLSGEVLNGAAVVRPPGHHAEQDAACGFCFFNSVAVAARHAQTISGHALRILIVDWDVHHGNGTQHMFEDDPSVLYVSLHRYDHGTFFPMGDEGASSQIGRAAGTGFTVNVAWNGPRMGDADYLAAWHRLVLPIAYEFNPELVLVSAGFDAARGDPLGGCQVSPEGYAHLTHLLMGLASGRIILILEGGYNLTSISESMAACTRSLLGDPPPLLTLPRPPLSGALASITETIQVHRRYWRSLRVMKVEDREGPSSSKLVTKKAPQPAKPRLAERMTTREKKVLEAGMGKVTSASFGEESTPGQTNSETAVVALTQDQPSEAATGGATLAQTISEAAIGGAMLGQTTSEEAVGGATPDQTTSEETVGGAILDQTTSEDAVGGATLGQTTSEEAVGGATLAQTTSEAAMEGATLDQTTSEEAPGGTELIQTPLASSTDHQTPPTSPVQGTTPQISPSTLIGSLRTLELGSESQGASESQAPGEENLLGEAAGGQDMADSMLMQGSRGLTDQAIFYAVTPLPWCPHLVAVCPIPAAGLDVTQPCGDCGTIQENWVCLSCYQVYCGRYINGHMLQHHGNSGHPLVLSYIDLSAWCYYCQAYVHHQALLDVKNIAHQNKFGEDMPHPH

CAL-27 = test: Potentiation of 45 uM cisplatin-induced toxicity in 1 uM cisplatin resistant human CAL27 cells at 1 uM pretreated for 48 hrs followed by 1 uM cisplatin treatment by MTT assay; format: functional

Cc1cc(C)cc(C(=O)NOCCCCCC(=O)NO)c1
IC50 [1]: 55.7 nM | Activity (CAL-27): Dose-dependent effect | fractional inhibitory concentration index (FICI) (CAL-27): 0.27
